From patent US20240166612A1, “ARYLTHIOETHER ACETAMIDE AND RELATED COMPOUNDS AND THEIR USE IN TREATING MEDICAL CONDITIONS” (X-Biotix Therapeutics, Inc., priority 2021, published 2024)
In brackets after ≈: the same amount, converted by molar mass.

Assays:
[1] = tested on: Wild-type P. aeruginosa PAO1; test: Broth microdilution MIC, wild-type P. aeruginosa PAO1; type: cell-based; settings: Pseudomonas aeruginosa; wild-type P. aeruginosa PAO1, 37° C., 18 h; read-out: PAO1 WT MIC
[2] = biological target: T1, recombinant LpxA enzyme (P. aeruginosa) (Pseudomonas aeruginosa, UniProt Q9X6P4); test: LpxA in vitro substrate acylation assay with RapidFire MS analysis (P. aeruginosa); type: biochemical; settings: P. aeruginosa enzyme 0.5 nM, PaACP-C10, 30 min
T1 sequence (Q9X6P4 1-258): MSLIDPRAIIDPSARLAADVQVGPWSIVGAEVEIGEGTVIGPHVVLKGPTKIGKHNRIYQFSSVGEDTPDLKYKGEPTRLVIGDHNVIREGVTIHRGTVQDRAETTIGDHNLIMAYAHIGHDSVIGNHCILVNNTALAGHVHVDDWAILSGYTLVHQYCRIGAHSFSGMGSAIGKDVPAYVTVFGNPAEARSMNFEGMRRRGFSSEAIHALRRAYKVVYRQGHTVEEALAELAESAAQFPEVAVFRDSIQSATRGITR
Method: (§1) Exemplary compounds from the above Examples were tested for ability to inhibit LpxA activity using an in vitro substrate acylation assay with RapidFire™ MS analysis. Assay procedures and results are described below.
(§2) Reactions were carried out in a final volume of 30 μL with 25 mM HEPES (pH 7.3), 150 mM NaCl, 2 mM DTT, 0.01% BSA, 5 μM UDP-GlcNac, recombinant LpxA enzyme (0.5 nM P. aeruginosa or 1.0 nM E. coli, both produced at Evotec), 0.5 μM acyl-transfer reagent (decanoyl P. aeruginosa acyl-carrier protein [PaACP-C10] or myristoyl E. coli acyl-carrier protein [EcACP-C1-4], both produced at Evotec), and 1% DMSO containing test compound. After 30 min incubation at room temperature, reactions were stopped by addition of 30 μL of 10% TCA in water.
(§3) Samples were centrifuged (4350 rpm, 4° C., 5 min), and then subjected to RapidFire™ MS analysis on an Agilent RapidFire 300 coupled to an Agilent 6460 triple-quadrupole mass spectrometer. Analytes were retained on a C4 (type A) cartridge using the following solvents and flow rates: • Pump 1—H2O with 5 mM NH4OAc at 2.0 mL/min, • Pump 2—MeOH/H2O (90/10) at 1.5 mL/min, • Pump 3—MeOH/H2O (90/10) at 0.5 mL/min, and • Pump 4—ACN (organic)/H2O (aqueous). Substrate and product of the reaction were detected in negative mode ESI-MS/MS by MRM (multiple reaction monitoring) of transitions 606.0/385.0 (UDP-GlcNAc substrate) and 776.2/385.0 (UDP-3-O—(R-3-hydroxydecanoyl)-GlcNAc product, for P. aeruginosa LpxA assay) or 832.2/385.0 (UDP-3-O—(R-3-hydroxymyristoyl)-GlcNAc product, for E. coli LpxA assay).
(§4) For IC50 determinations, peak areas of the substrate and product were compared to compute the proportion of product formed by the LpxA enzyme at each compound concentration.

P. aeruginosa PAO397 = test: Broth microdilution MIC, P. aeruginosa PAO397; type: cell-based; settings: Pseudomonas aeruginosa, PAO397, 18 h, read-out: PAO397 KO MIC
[3] = biological target: recombinant LpxA enzyme (E. coli) (Escherichia coli, UniProt P0A722); test: LpxA in vitro substrate acylation assay with RapidFire MS analysis (E. coli); type: biochemical
recombinant LpxA enzyme (E. coli), sequence (P0A722 whole entry): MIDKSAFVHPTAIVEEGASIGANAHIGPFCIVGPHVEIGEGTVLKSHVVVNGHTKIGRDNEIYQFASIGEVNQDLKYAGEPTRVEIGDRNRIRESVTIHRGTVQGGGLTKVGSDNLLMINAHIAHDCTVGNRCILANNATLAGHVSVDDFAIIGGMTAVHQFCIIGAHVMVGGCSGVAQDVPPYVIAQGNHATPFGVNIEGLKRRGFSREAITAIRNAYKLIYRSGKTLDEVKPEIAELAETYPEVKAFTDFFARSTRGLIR
Method: as §1, §2, §3, §4

P. aeruginosa LESB58 = test: Broth microdilution MIC, P. aeruginosa LESB58; type: cell-based; settings: Pseudomonas aeruginosa; P. aeruginosa LESB58 clinical isolate, colistin-resistant, 37° C., 18 h
[4] = tested on: P. aeruginosa PAO1 ΔmexABoprM; test: Broth microdilution MIC, P. aeruginosa PAO1 ΔmexABoprM; type: cell-based; settings: Pseudomonas aeruginosa, PAO1, 18 h, read-out: PAO1 KO MIC
Method: Exemplary compounds from the above Examples were tested to determine their minimum inhibitory concentration (MIC) for exemplary strains of Escherichia and Pseudomonas bacteria using broth microdilution methods. Assay procedures and results are described below.
Broth microdilution assays were conducted according to Clinical and Laboratory Standards Institute guidelines (CLSI, M07-A^11: Clinical and Laboratory Standards Institute. Methods for Dilution Antimicrobial Susceptibility Tests for Bacteria that Grow Aerobically; Approved Standard-11th Edition. Wayne, PA: CLSI, 2018). Briefly, bacterial suspensions were adjusted to a density equivalent to a 0.5 McFarland standard and diluted in sterile, cation-adjusted Mueller-Hinton broth (Beckton Dickinson) to yield a final inoculum between 2×10^5 and 8×10^5 colony-forming units (CFU)/mL. An inoculum volume of 98 μL was added to wells containing 2 μL of 2-fold serial dilutions of drug (prepared in DMSO). All inoculated microdilution trays were incubated in ambient air at 37° C. for 18 h. […] Performance of the assay was monitored by the use of laboratory quality-control strains (S. aureus ATCC 29213 and P. aeruginosa ATCC 27853) and levofloxacin, a compound with a defined MIC spectrum, in accordance with CLSI guidelines (CLSI, M100Ed29: Clinical and Laboratory Standards Institute. Performance Standards for Antimicrobial Susceptibility Testing, 29th Edition. Wayne, PA: CLSI, 2018).
Multiple enterobacteriaceae strains were tested, including both wild-type strains and multi-drug resistance pump deficient mutants. Specific strains tested included the following: • Wild-type P. aeruginosa PAO1, • P. aeruginosa PAO1 ΔmexABoprM—Disabled multi-drug efflux system Δ(MexAB-OprM), • P. aeruginosa PAO397—PAO1Δ(mexAB-oprM) Δ(mexCD-oprJ) Δ(mexEF-oprN) Δ(mexJK) Δ(mexXY) ΔopmH, • P. aeruginosa LESB58—Clinical isolate; colistin-resistant, isolated in the United Kingdom in 1988 from a patient with cystic fibrosis • E. coli JW0452-3 (BW25113 JacrA::kan)—Disabled multi-drug efflux system (AcrAB-TolC).
Experimental results are provided in Table 11, which provides MIC values for wild-type P. aeruginosa PAO1 (“PAO1 WT MIC”), P. aeruginosa PAO ΔmexABoprM (“PAO1 KO MIC”), P. aeruginosa PAO397 (“PAO397 KO MIC”), P. aeruginosa LESB58 (“LESB58”), and E. coli JW0452-3 (BW25113 JacrA::kan) (“E. coli KO MIC”).

SMILES	MIC [1]	IC50 [2]	MIC (P. aeruginosa PAO397)	IC50 [3]	MIC (P. aeruginosa LESB58)	MIC [4]
N#Cc1ccc(CN(CC(=O)N2CCNCC2)C(=O)CSc2ccccc2Cl)cc1 [Compound No. 3]	> 64 µg/mL	> 1000 nM	16 to 64 µg/mL (≈ 36.1 to 144 µM)	> 20000 nM	–	–
CCc1ccccc1SCC(=O)N(Cc1ccc(C#N)nc1)Cc1nnc(N)o1 [Compound No. 7, N-[(5-Amino-1,3,4-oxadiazol-2-yl)methyl]-N-[(6-cyano-3-pyridyl)methyl]-2-(2-ethylphenyl)sulfanyl-acetamide]	> 64 µg/mL	< 20 nM	< 1 µg/mL	–	16 to 64 µg/mL (≈ 39.2 to 157 µM)	1 to 16 µg/mL (≈ 2.45 to 39.2 µM)
N#Cc1ccc(CN(Cc2nnc(N)o2)C(=O)CSc2cc(F)cc(F)c2Cl)cn1 [Compound No. 21, N-[(5-Amino-1,3,4-oxadiazol-2-yl)methyl]-2-(2-chloro-3,5-difluoro-phenyl)sulfanyl-N-[(6-cyano-3-pyridyl)methyl]acetamide]	16 to 64 µg/mL (≈ 35.5 to 142 µM)	< 20 nM	< 1 µg/mL	–	16 to 64 µg/mL (≈ 35.5 to 142 µM)	1 to 16 µg/mL (≈ 2.22 to 35.5 µM)
N#Cc1ccc(CN(Cc2nnc(N)o2)C(=O)CSc2cccc(F)c2Cl)c(F)c1 [Compound No. 28, N-[(5-Amino-1,3,4-oxadiazol-2-yl)methyl]-2-(2-chloro-3-fluoro-phenyl)sulfanyl-N-[(4-cyano-2-fluoro-phenyl)methyl]acetamide]	16 to 64 µg/mL (≈ 35.6 to 142 µM)	< 20 nM	< 1 µg/mL	–	–	1 to 16 µg/mL (≈ 2.22 to 35.6 µM)
N#Cc1ccc(CN(Cc2nnc(N)o2)C(=O)CSc2cc(OCCN)ccc2Cl)c(F)c1 [Compound No. 60, 2-[5-(2-Aminoethoxy)-2-chloro-phenyl]sulfanyl-N-[(5-amino-1,3,4-oxadiazol-2-yl)methyl]-N-[(4-cyano-2-fluoro-phenyl)methyl]acetamide]	> 64 µg/mL	100 to 1000 nM	< 1 µg/mL	–	–	1 to 16 µg/mL (≈ 2.04 to 32.6 µM)
Cc1noc(CN(Cc2ccc(C#N)cc2)C(=O)CSc2ccccc2Cl)n1 [Compound No. 68, 2-(2-Chlorophenyl)sulfanyl-N-[(4-cyanophenyl)methyl]-N-[(3-methyl-1,2,4-oxadiazol-5-yl)methyl]acetamide]	> 64 µg/mL	20 to 100 nM	1 to 16 µg/mL (≈ 2.42 to 38.8 µM)	–	–	16 to 64 µg/mL (≈ 38.8 to 155 µM)
CCc1ccccc1SCC(=O)N(Cc1ccc(C#N)cc1)Cc1nnc(N)[nH]1 [Compound No. 70, N-[(5-Amino-4H-1,2,4-triazol-3-yl)methyl]-N-[(4-cyanophenyl)methyl]-2-(2-ethylphenyl)sulfanyl-acetamide]	> 64 µg/mL	20 to 100 nM	< 1 µg/mL	–	–	1 to 16 µg/mL (≈ 2.46 to 39.4 µM)
N#Cc1ccc(CN(Cc2nnc(N)o2)C(=O)CSc2ccccc2Cl)cc1 [compound 9]	16 to 64 µg/mL (≈ 38.7 to 155 µM)	–	< 1 µg/mL	> 20000 nM	–	1 to 16 µg/mL (≈ 2.42 to 38.7 µM)
Cc1ccccc1SCC(=O)N(Cc1ccc(C#N)nc1)Cc1nnc(N)o1 [compound 15]	> 64 µg/mL	100 to 1000 nM	1 to 16 µg/mL (≈ 2.54 to 40.6 µM)	–	–	1 to 16 µg/mL (≈ 2.54 to 40.6 µM)
CCc1ccccc1OCC(=O)N(Cc1ccc(C#N)nc1)Cc1nnc(N)o1 [compound 19]	> 64 µg/mL	20 to 100 nM	< 1 µg/mL	–	16 to 64 µg/mL (≈ 40.8 to 163 µM)	1 to 16 µg/mL (≈ 2.55 to 40.8 µM)
Nc1nnc(CN(Cc2ccc(S(N)(=O)=O)cc2F)C(=O)CSc2cc(F)ccc2Cl)o1 [compound 24]	> 64 µg/mL	20 to 100 nM	< 1 µg/mL	–	16 to 64 µg/mL (≈ 31.7 to 127 µM)	1 to 16 µg/mL (≈ 1.98 to 31.7 µM)
Nc1nnc(CN(Cc2ccc(S(N)(=O)=O)cc2F)C(=O)CSc2cc(F)cc(F)c2Cl)o1 [compound 27]	> 64 µg/mL	–	< 1 µg/mL	> 20000 nM	1 to 16 µg/mL (≈ 1.92 to 30.7 µM)	< 1 µg/mL
N#Cc1ccc(CN(Cc2nnc(N)o2)C(=O)CSc2cc(F)ccc2Cl)c(F)c1 [compound 30]	16 to 64 µg/mL (≈ 35.6 to 142 µM)	< 20 nM	< 1 µg/mL	–	–	1 to 16 µg/mL (≈ 2.22 to 35.6 µM)
N#Cc1ccc(CN(Cc2nnc(N)o2)C(=O)COc2ccccc2C(F)(F)F)cc1 [compound 33]	> 64 µg/mL	20 to 100 nM	< 1 µg/mL	–	–	16 to 64 µg/mL (≈ 37.1 to 148 µM)
N#Cc1ccc(CN(Cc2nnc(N)o2)C(=O)COc2ccccc2Br)cc1 [compound 35]	> 64 µg/mL	20 to 100 nM	< 1 µg/mL	–	–	1 to 16 µg/mL (≈ 2.26 to 36.2 µM)
C[C@@H](Oc1ccccc1Cl)C(=O)N(Cc1ccc(C#N)cc1)Cc1nnc(N)o1 [compound 36]	> 64 µg/mL	100 to 1000 nM	< 1 µg/mL	–	> 64 µg/mL	16 to 64 µg/mL (≈ 38.8 to 155 µM)
CC(=O)Nc1ccc(CN(Cc2nnc(N)o2)C(=O)CSc2ccccc2Cl)cc1 [compound 44]	> 64 µg/mL	100 to 1000 nM	16 to 64 µg/mL (≈ 35.9 to 144 µM)	> 20000 nM	–	–
N#Cc1ccc(CN(Cc2nnc(N)o2)C(=O)CSc2cc(CO)ccc2Cl)cc1 [compound 45]	> 64 µg/mL	20 to 100 nM	< 1 µg/mL	–	–	1 to 16 µg/mL (≈ 2.25 to 36 µM)
Cc1cc(C#N)ccc1CN(Cc1nnc(N)o1)C(=O)CSc1ccccc1Cl [compound 48]	> 64 µg/mL	20 to 100 nM	< 1 µg/mL	–	–	16 to 64 µg/mL (≈ 37.4 to 150 µM)
N#Cc1ccc(CN(Cc2nnc(N)o2)C(=O)CSc2cc(F)ccc2Cl)cc1 [compound 51]	> 64 µg/mL	< 20 nM	< 1 µg/mL	–	1 to 16 µg/mL (≈ 2.32 to 37 µM)	1 to 16 µg/mL (≈ 2.32 to 37 µM)
N#Cc1ccc(CN(Cc2nnn[nH]2)C(=O)CSc2ccccc2Cl)cc1 [compound 54]	> 64 µg/mL	–	16 to 64 µg/mL (≈ 40.1 to 160 µM)	> 20000 nM	–	–
N#Cc1ccc(CN(Cc2nnc(N)o2)C(=O)CSc2cccc(Cl)c2Cl)c(F)c1 [compound 57]	> 64 µg/mL	20 to 100 nM	< 1 µg/mL	–	16 to 64 µg/mL (≈ 34.3 to 137 µM)	1 to 16 µg/mL (≈ 2.14 to 34.3 µM)
N#Cc1ccc(CN(Cc2nnc(N)o2)C(=O)CSc2ncccc2Cl)c(F)c1 [compound 58]	> 64 µg/mL	20 to 100 nM	< 1 µg/mL	–	> 64 µg/mL	1 to 16 µg/mL (≈ 2.31 to 37 µM)
Cc1ncc(CN(Cc2ccc(C#N)cc2)C(=O)CSc2ccccc2Cl)o1 [compound 73]	> 64 µg/mL	100 to 1000 nM	1 to 16 µg/mL (≈ 2.43 to 38.8 µM)	> 20000 nM	–	–
Cc1nnc(CN(Cc2ccc(C#N)cc2)C(=O)CSc2ccccc2Cl)[nH]1 [compound 74]	> 64 µg/mL	100 to 1000 nM	1 to 16 µg/mL (≈ 2.43 to 38.8 µM)	–	–	16 to 64 µg/mL (≈ 38.8 to 155 µM)
